Entries after “also recorded” stand apart in the source; their conditions may differ.
Tests used:
[1] = tested on: TNFα expression in microglial cell line (EOC20); experiment: TNFα expression in microglial cells, Real-Time PCR; format: cell-based, human
Experimental: In order to validate the hypothesis that TNFα stimulation is regulated by an autocrine loop (i.e., TNFα induces expression of TNFα; see FIG. 2), a microglial cell line (EOC20) […] was stimulated in vitro by addition of TNFα (20 ng/ml).
1 hour prior to addition of TNFα, stimulated or unstimulated cells, respectively, were treated with DMSO (vehicle control), or 0.5 μM and 0.05 μM, respectively, of compound A. Cells were harvested 48 h after addition of TNFα. RNA was isolated from the samples and the amount of amplicon of TNFα (and of other cytokines) and of several housekeeping genes was measured by light cycler-based Real-Time PCR.

CDK7/CycH/MAT1 = target: T1, CDK7/CycH/MAT1 (Homo sapiens, UniProt P50613); experiment: In vitro kinase inhibition assay, CDK7/CycH/MAT1; format: biochemical
T1 construct: made in house; host or cells: Sf9 insect cells, baculovirus

CDK5/p35NCK = target: T2, CDK5/p35NCK (Homo sapiens, UniProt Q00535); experiment: In vitro kinase inhibition assay, CDK5/p35NCK; format: biochemical
T2 construct: made in house; host or cells: Sf9 insect cells, baculovirus

CDK3/CycE = target: T3, CDK3/CycE (Homo sapiens, UniProt Q00526); experiment: In vitro kinase inhibition assay, CDK3/CycE; format: biochemical
T3 construct: made in house; host or cells: Sf9 insect cells, baculovirus

formalin-treated mice = experiment: Formalin assay, licking behaviour; format: in vivo; settings: 30 mg/kg i.p. 30 min before formalin injection
Experimental: The formalin assay in mice is a valid and reliable behavioral model of nociception and is sensitive to various classes of analgesic drugs (Hunskaar S & Hole K, Pain. 1987, 30(1):103-14.) The noxious stimulus consists of a subcutaneous or an intraplantar injection of 10 μl diluted formalin (2% in saline) into the left hind paw. The response is licking and flinching of the injected paw.
Age, sex and weight matched wildtype mice (C3HeB/FeJ) were used in this assay. Prior to formalin injection, the animals were randomly subdivided into experimental groups of 10 animals each. […]
For formalin injection, the mouse was held with a paper towel in order to avoid disturbance of the injection by movements. […] The behavior of the formalin- and CDK-inhibitor-treated mice was analyzed as described below.
The behaviour of the formalin-treated mice, i.e. licking and flinching, was monitored by an automated tracking system (Ethovision 3.0 Color Pro, Noldus, Wageningen, Netherlands) over a defined period of time: measurement was initiated 5 min after formalin injection and terminated 30 min after formalin injection. […]
As another possibility of assay read-out, the licking behaviour of the individual animals was tracked manually based on video files. Licking times were recorded over 30 minutes after formalin injection and subdivided for three different licking zones (dorsum, plantar, toes). […]

T1 sequence (P50613 whole entry): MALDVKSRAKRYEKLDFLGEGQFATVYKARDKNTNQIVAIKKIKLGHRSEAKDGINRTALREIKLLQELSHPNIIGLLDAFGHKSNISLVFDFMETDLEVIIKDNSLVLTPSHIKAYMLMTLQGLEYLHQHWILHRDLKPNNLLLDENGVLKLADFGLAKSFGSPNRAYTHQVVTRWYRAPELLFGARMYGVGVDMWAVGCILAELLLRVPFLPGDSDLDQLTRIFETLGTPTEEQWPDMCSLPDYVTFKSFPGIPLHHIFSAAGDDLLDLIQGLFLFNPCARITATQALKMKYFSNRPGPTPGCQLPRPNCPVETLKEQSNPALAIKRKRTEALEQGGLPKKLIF
T1 sequence (P51946 whole entry partner): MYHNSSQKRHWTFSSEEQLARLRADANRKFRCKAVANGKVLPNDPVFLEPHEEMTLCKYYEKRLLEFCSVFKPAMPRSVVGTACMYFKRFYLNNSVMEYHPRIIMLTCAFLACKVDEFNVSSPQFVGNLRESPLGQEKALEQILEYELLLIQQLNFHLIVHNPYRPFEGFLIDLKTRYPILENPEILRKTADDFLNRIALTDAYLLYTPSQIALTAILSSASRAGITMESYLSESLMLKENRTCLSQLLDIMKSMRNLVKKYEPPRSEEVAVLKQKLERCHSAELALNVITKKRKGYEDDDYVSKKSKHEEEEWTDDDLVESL
T1 sequence (P51948 whole entry partner): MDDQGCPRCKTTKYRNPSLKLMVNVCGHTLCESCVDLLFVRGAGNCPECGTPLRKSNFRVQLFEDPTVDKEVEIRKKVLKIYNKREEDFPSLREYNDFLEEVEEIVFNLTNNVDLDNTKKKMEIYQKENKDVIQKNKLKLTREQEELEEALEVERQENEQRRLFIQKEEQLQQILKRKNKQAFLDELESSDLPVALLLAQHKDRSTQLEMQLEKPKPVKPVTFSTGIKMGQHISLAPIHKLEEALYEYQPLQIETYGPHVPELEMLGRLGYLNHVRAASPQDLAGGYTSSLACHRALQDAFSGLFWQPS
T3 sequence (Q00526 whole entry): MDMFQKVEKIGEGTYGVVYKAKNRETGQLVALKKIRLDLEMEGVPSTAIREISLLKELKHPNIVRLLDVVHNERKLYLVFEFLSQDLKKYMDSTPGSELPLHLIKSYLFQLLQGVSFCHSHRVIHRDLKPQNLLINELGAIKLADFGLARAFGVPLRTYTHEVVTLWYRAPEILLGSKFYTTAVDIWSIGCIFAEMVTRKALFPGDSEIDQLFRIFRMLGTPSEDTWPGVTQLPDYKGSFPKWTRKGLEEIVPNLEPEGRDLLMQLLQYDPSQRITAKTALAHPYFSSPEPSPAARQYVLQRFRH
T3 sequence (P24864 whole entry partner): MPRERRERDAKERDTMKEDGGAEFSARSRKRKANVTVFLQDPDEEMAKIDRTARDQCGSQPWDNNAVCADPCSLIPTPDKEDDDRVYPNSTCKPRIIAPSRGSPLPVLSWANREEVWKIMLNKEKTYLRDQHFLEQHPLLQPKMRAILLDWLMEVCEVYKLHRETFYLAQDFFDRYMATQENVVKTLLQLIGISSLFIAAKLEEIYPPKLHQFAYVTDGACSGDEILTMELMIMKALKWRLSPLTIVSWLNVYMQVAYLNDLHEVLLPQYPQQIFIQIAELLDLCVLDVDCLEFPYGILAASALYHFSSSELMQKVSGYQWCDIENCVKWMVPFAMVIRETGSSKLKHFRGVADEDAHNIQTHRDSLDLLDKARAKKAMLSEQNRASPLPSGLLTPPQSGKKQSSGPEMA
T2 sequence (Q00535 whole entry): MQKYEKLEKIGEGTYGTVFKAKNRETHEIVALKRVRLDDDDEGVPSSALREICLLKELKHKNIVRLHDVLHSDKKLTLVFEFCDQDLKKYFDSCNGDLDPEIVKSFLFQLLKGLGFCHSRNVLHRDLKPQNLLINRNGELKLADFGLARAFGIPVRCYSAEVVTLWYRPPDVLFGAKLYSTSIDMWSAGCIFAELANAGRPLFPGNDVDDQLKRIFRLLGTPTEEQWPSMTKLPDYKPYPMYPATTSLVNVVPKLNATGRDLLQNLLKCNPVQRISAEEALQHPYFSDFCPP
T2 sequence (Q15078 whole entry partner): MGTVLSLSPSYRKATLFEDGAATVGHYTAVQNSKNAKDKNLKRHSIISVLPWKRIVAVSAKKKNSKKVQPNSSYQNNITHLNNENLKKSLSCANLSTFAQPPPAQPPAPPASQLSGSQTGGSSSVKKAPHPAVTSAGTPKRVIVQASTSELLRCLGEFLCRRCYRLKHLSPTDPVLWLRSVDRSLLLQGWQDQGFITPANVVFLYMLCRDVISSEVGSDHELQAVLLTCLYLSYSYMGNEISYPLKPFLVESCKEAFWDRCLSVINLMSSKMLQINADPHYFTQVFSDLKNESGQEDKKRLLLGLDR

IC50 (CDK7/CycH/MAT1): 10 µM
IC50 (CDK5/p35NCK): 58.1 µM
IC50 (CDK3/CycE): 18.5 µM
Compound: COc1ccccc1-c1cc(Nc2cccc(S(N)(=O)=O)c2)ncn1 [Compound A]
TNFα message in unstimulated cells ([1]; EOC20 cells without TNFα stimulation, 0.5 μM and 0.05 μM compound): reduction of TNFα message
TNFα amplicon in TNFα-stimulated cells ([1]; EOC20 cells, TNFα 20 ng/ml, 0.5 μM and 0.05 μM compound 1 hour prior, harvested 48 h): dose-dependent reduction
fluorescent dot size of the formalin-treated paw (formalin-treated mice): no significant reduction of fluorescent dot size
licking time (formalin-treated mice; vs vehicle, 30 mg/kg): reduction in licking time; also recorded: clearly reduced

Reference: patent US20090221581A1, “Methods of treating pain” (priority 2005, published 2009)
